In PubChem BioAssay (NCI):
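Grown in 96-well plates, cells were treated for 48 hours with each compound at five concentrations. Insufficient inhibition: endpoint recorded as highest concentration tested. At the TGI there is no net growth.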

Legend:
Assay in all cases: inhibition of tumour cell growth, NCI panel, 48 h
M19-MEL melanoma = system: M19-MEL melanoma
HOP-18 NSCLC = system: HOP-18 NSCLC
DMS 273 small cell lung = system: DMS 273 small cell lung
KM20L2 colon = system: KM20L2 colon
XF 498 CNS = system: XF 498 CNS
SNB-78 CNS = system: SNB-78 CNS
RXF-631 renal = system: RXF-631 renal

`Cc1nc2c(n1C)C(=O)c1nc(CBr)[nH]c(=O)c1C2=O` showed a TGI (M19-MEL melanoma) greater than 100 µM, a TGI (HOP-18 NSCLC) greater than 100 µM and a TGI (DMS 273 small cell lung) greater than 100 µM. For the same compound, the TGI (KM20L2 colon) was greater than 100 µM.

`CSc1nc(NC2OCC(OC(C)=O)C(OC(C)=O)C2OC(C)=O)c(N=C(C)C(C)=O)c(=O)[nH]1` (stereo not given) gave a TGI (XF 498 CNS) greater than 100 µM, a TGI (HOP-18 NSCLC) greater than 100 µM and a TGI (DMS 273 small cell lung) greater than 100 µM. For the same compound, the TGI (SNB-78 CNS) was greater than 100 µM.

In the case of `C=CCc1cc(-c2cc(CC=C)c(O)c(CNC)c2)cc(CNC)c1O`, the TGI (M19-MEL melanoma) was 27.2 µM, the TGI (XF 498 CNS) was 30.3 µM and the TGI (RXF-631 renal) was 28.8 µM. The TGI (SNB-78 CNS) was 40.8 µM and the TGI (KM20L2 colon) was 30.8 µM.

For `Cc1ccc(NP(=O)(Oc2ccccc2)N(CCCl)CCCl)cc1` (stereo not given), the TGI (M19-MEL melanoma) was greater than 100 µM, the TGI (HOP-18 NSCLC) was greater than 100 µM and the TGI (RXF-631 renal) was greater than 100 µM. The TGI (DMS 273 small cell lung) was greater than 100 µM, the TGI (SNB-78 CNS) was greater than 100 µM and the TGI (KM20L2 colon) was greater than 100 µM.

With `CCCCCCCCCCCCCCCc1ccc(OCC(O)CO)cc1` (stereo not given) the TGI (M19-MEL melanoma) was 33.4 µM, the TGI (XF 498 CNS) was 39.3 µM and the TGI (HOP-18 NSCLC) was greater than 100 µM. For the same compound, the TGI (RXF-631 renal) was 71.6 µM, the TGI (DMS 273 small cell lung) was 33.3 µM and the TGI (SNB-78 CNS) was 99.3 µM. For the same compound, the TGI (KM20L2 colon) was 94.4 µM.

Compound `CN(C)c1nc(N(C)C)nc(N(C)CN(C)c2ccc(Cl)cc2)n1` has a TGI (M19-MEL melanoma) greater than 100 µM, a TGI (XF 498 CNS) greater than 100 µM and a TGI (DMS 273 small cell lung) greater than 100 µM. The TGI (SNB-78 CNS) was greater than 100 µM.
